In publication PMC2206373, “Identification of an altered peptide ligand based on the endogenously presented, rheumatoid arthritis-associated, human cartilage glycoprotein-39(263–275) epitope: an MHC anchor variant peptide for immune modulation” (Arthritis Research & Therapy, 2007):
Non-standard residues stand in square brackets, D forms with d. Residues, ends and D or L forms follow the SMILES beside them. *: point of attachment. Phe(4-NO2) = N[C@@H](Cc1ccc([N+](=O)[O-])cc1)C(=O)O; Phe(4-Cl) = N[C@@H](Cc1ccc(Cl)cc1)C(=O)O; Phe(4-F) = N[C@@H](Cc1ccc(F)cc1)C(=O)O; Bn = c1ccc(C*)cc1

Legend:
T cell hybridoma 14G11 = test: T hybridoma 14G11 IL-2 response; type: cell-based, mouse; conditions: Figure 1; IL-2 production, DRB1*0401 BLCL as APC; duplicate or triplicate; background 7,152 counts; ±30% of WT response = super/partial agonist
Experimental: (§1) The T cell hybridomas, provided by G Sonderstrup (Stanford, CA, USA), were generated as described. In brief, human CD4, HLA-DRA*101/HLA-DRB*0401 triple transgenic (HLA-DR4trg) mice (devoid of I-Aβ) were immunized in the footpad with 50 μg of purified HC gp-39 mixed in incomplete Freund's adjuvant (IFA). Draining lymph nodes were isolated and T-cell hybridomas were generated by polyethylene glycol fusion of primed and in vitro antigen-restimulated lymph node cells with the AKR BW5147 fusion partner. Following fusion, growth-positive hybridoma wells were screened for reactivity to HC gp-39 and a set of 55 peptides (16 amino acids in length) covering the entire HC gp-39 sequence. HLA-DR4(B1*0401)-restricted hybridomas responsive to both the HC gp-39 protein and the immunodominant epitope 263–275 of HC gp-39 (for example, 5G11, 8B12, 14G11 and 20H5) were cloned, subcloned, characterised and selected for further study.
(§2) HC gp-39-specific IL-2 production by T hybridomas was measured in wells of round-bottomed microtiter plates. Hybridoma cells (2 to 5 × 10^4) and irradiated APC (0.5 to 1 × 10^5; 12,000 to 16,000 RAD) from the B lymphoblastoid cell line (BLCL) carrying the DRB1*0401 specificity were incubated in 150 μl volumes. Antigen was added in 50 μl volumes to duplicate wells. After 48 h, 100 μl of the culture supernatant was assayed for IL-2 production using a sandwich ELISA with Pharmingen antibodies specific for mouse IL-2. The antigen sensitivity of the hybridomas to both peptide and protein was determined (Figure 2). […] In later assays, an excess of peptide or APL (10 μg/ml), inducing maximal responses in all hybridomas, was tested.

HLA-DR4(B1*0401) = HLA-DR4(B1*0401) (Homo sapiens, UniProt P01903+P01911, A100K/A169T/F76Y/I96L/K127E/L162R/M171V/N62H/P40V/Q125Y/R42H/S133A/S149N/S66Y/V115G/V209L/W38E); test: HLA-DR4 competition peptide binding assay; conditions: Figure 1; competition with biotinylated HA307-319 (Y309F) 50 nM, purified HLA-DR4 30 nM, pH 5, 48 h, room temperature; read-out: DRB1*0401 binding IC50
Experimental: HLA-DR bound marker peptide was separated from free marker peptide and the amount of bound marker peptide was detected and quantified by enhanced chemoluminescense. Inhibition curves were generated and the IC50 was determined. The concentration of competitor peptide inducing 50% inhibition of marker peptide binding was determined, and expressed as the 50% inhibitory concentration (IC50 in μM).

T cell hybridoma 8B12 = test: T hybridoma 8B12 IL-2 response; type: cell-based, mouse; conditions: Figure 1; IL-2 production, DRB1*0401 BLCL as APC; duplicate or triplicate; background 16,288 counts; ±30% of WT response = super/partial agonist
Experimental: as §1, §2

T cell hybridoma 5G11 = test: T hybridoma 5G11 IL-2 response; type: cell-based, mouse; conditions: Figure 1; IL-2 production, DRB1*0401 BLCL as APC; duplicate or triplicate; background 29,203 counts; ±30% of WT response = super/partial agonist
Experimental: as §1, §2

CC(C)C[C@H](NC(=O)[C@@H](NC(=O)[C@H](Cc1ccc(F)cc1)NC(=O)[C@H](CO)NC(=O)[C@@H](N)CCCNC(=N)N)[C@@H](C)O)C(=O)N[C@@H](C)C(=O)N[C@@H](CO)C(=O)N[C@@H](CO)C(=O)N[C@@H](CCC(=O)O)C(=O)N[C@H](C(=O)NCC(=O)N[C@H](C(=O)NCC(=O)O)C(C)C)[C@@H](C)O [Compound 30] (H-RS[Phe(4-F)]TLASSETGVG-OH)
T hybridoma (SI) 14G11 (T cell hybridoma 14G11): 27 SI | IC50 (HLA-DR4(B1*0401)): 12 nM | T hybridoma (SI) 8B12 (T cell hybridoma 8B12): 17 SI | T hybridoma (SI) 5G11 (T cell hybridoma 5G11): 29 SI

CC(C)C[C@H](NC(=O)[C@@H](NC(=O)[C@H](Cc1ccc(Cl)cc1)NC(=O)[C@H](CO)NC(=O)[C@@H](N)CCCNC(=N)N)[C@@H](C)O)C(=O)N[C@@H](C)C(=O)N[C@@H](CO)C(=O)N[C@@H](CO)C(=O)N[C@@H](CCC(=O)O)C(=O)N[C@H](C(=O)NCC(=O)N[C@H](C(=O)NCC(=O)O)C(C)C)[C@@H](C)O [Compound 31] (H-RS[Phe(4-Cl)]TLASSETGVG-OH)
T hybridoma (SI) 14G11 (T cell hybridoma 14G11): 29 SI | IC50 (HLA-DR4(B1*0401)): 9 nM | T hybridoma (SI) 8B12 (T cell hybridoma 8B12): 14 SI | T hybridoma (SI) 5G11 (T cell hybridoma 5G11): 32 SI

CC(C)C[C@H](NC(=O)[C@@H](NC(=O)[C@H](Cc1ccc([N+](=O)[O-])cc1)NC(=O)[C@H](CO)NC(=O)[C@@H](N)CCCNC(=N)N)[C@@H](C)O)C(=O)N[C@@H](C)C(=O)N[C@@H](CO)C(=O)N[C@@H](CO)C(=O)N[C@@H](CCC(=O)O)C(=O)N[C@H](C(=O)NCC(=O)N[C@H](C(=O)NCC(=O)O)C(C)C)[C@@H](C)O [Compound 34] (H-RS[Phe(4-NO2)]TLASSETGVG-OH)
T hybridoma (SI) 14G11 (T cell hybridoma 14G11): 33 SI | IC50 (HLA-DR4(B1*0401)): 13 nM | T hybridoma (SI) 8B12 (T cell hybridoma 8B12): 20 SI | T hybridoma (SI) 5G11 (T cell hybridoma 5G11): 32 SI

CC(C)C[C@H](NC(=O)[C@@H](NC(=O)[C@H](COCc1ccccc1)NC(=O)[C@H](CO)NC(=O)[C@@H](N)CCCNC(=N)N)[C@@H](C)O)C(=O)N[C@@H](C)C(=O)N[C@@H](CO)C(=O)N[C@@H](CO)C(=O)N[C@@H](CCC(=O)O)C(=O)N[C@H](C(=O)NCC(=O)N[C@H](C(=O)NCC(=O)O)C(C)C)[C@@H](C)O [Compound 35] (H-RSS(Bn)TLASSETGVG-OH)
T hybridoma (SI) 14G11 (T cell hybridoma 14G11): 31 SI | IC50 (HLA-DR4(B1*0401)): 7 nM | T hybridoma (SI) 8B12 (T cell hybridoma 8B12): 20 SI | T hybridoma (SI) 5G11 (T cell hybridoma 5G11): 28 SI
